The values below come from patent US12129255B2, “Pyrido [2,3-d]pyrimidine derivatives as inhibitors of human immunodeficiency virus replication” (VIIV HEALTHCARE UK (No. 5) LIMITED, priority 2019, dated 2024).

A short description of data set [1]: Cytotoxicity in uninfected MT2 cells, XTT colorimetric assay. Format: cell-based. To be noted: human, day 4, XTT. As for the experimental part:
Compound cytotoxicity and the corresponding CC50 values were determined using the same protocol as described in the antiviral assay except that uninfected cells were used. Cytotoxicity was assessed on day 4 in uninfected MT2 cells by using an XTT (2,3-bis[2-Methoxy-4-nitro-5-sulfophenyl]-2H-tetrazolium-5-carboxyanilide inner salt)-based colorimetric assay (Sigma-Aldrich, St Louis, Mo).
A general note: Tetrazolium dyes change colour on reduction, which living cells bring about.

Data set [2] can be described thus: Metabolism in human hepatocytes. Format: in vitro ADME. As for the experimental part:
Cryopreserved hepatocytes in suspension from human, monkey, dog, rat and mouse were thawed and diluted in pre-warmed William's Medium E (pH 7.4). Aliquots of the hepatocyte suspension were added to test compound working solutions prepared in pre-warmed William's Medium E (pH 7.4) to achieve final concentrations of 0.5 μM in 0.5×10^6 cells per milliliter and ≤0.25% DMSO. These samples were incubated at 37° C. with 5% carbon dioxide and shaking at 200 rpm. The incubations were performed in singlet. […] Following completion of the experiment, samples were analyzed by LC-MS/MS. […] This percentage is calculated by dividing the peak area ratio of test compound following incubation (tx) by the peak area ratio of test compound at time-zero (t0) just prior to incubation. • The elimination rate constant (k, min^−1) is calculated using nonlinear regression fitting with the following equation: Ct=C0×e^(−k×t) • where: • C0 is the initial concentration represented as the peak area ratio (test compound peak area/internal standard peak area); • Ct is the concentration at t represented as the area ratio (test compound peak area/internal standard peak area); • e is the base of the natural logarithm • t is the time (min); • k is the elimination rate constant (min^−1). • The half-life (t1/2, min) is calculated using the following equation: […]

The nature of data set [3]: Metabolism in liver microsomes (human). To be noted: pH 7.4, 1 μM compound, 1 mg/mL microsomes, NADPH, read-out: Human liver microsome T1/2. Format: in vitro ADME. As for the experimental part:
(§1) Liver microsomes from human, rat dog and monkey were thawed and diluted to a final concentration of 1 mg/mL in 100 mM potassium phosphate buffer (pH 7.4). Test compounds and controls were prepared at 100× final concentration of 1 μM in 1:1 acetonitrile:water (v/v) and aliquoted into microsomal mixture. The mixture was preincubated at 37° C. in a shaking water bath for 10 minutes. The incubations were performed in duplicate. Three controls were included in the incubations; warfarin, phenacetin, and verapamil. After the preincubation, the reaction was initiated with NADPH at a final concentration of 1 mM. At 0, 5, 15, 30, 45 and 60 minutes, 25 μL of sample was removed and quenched with 300 μL of acetonitrile containing internal standard (Telmisartan). The samples were vortexed for 5 minutes at 1200 rpm and then centrifuged at 4000 rpm for 10 min. A 100 μL aliquot of supernatant was diluted three-fold with water and injected on an Exion LC 4500 Triple Quad LC-MS/MS system. Results were reported as a percentage of parent remaining and was calculated from peak area ratios of test compound remaining after at each time point and compared to time zero incubation.

Data set [4] can be described thus: IV pharmacokinetics in mouse. Format: in vivo, male CD1 mice. The conditions noted are these: male, CD1, plasma, IV 1 mg/kg. As for the experimental part: PK was investigated in male CD1 mice, Wistar Han Rats, Cynomolgus monkeys, and Beagle Dogs. Two groups of animals (N=3 per group) received test compound either as an intravenous (IV) dose (1 mg/kg) or by oral gavage (5 mg/kg solution and suspension). Drug was formulated in 90% PEG 400, 10% ethanol for IV administration and in 90% PEG400, 5% ethanol for PO administration. Blood samples were collected at 0.167, 0.25, 0.5, 0.75, 1, 2, 3, 5, 7, 24, 48, 72 and 96 h post dose for IV; 0.25, 0.5, 0.75, 1, 2, 3, 5, 7, 24, 48, 72 and 96 h post dose for oral. Blood samples were collected into K3EDTA tubes and centrifuged at 1500 to 2000×g to obtain plasma. Plasma samples were stored at −20° C. until analysis by LC-MS/MS. All in vivo samples were injected on an Exion LC 4500 Triple Quad™ LC-MS/MS system where the column was maintained at 60° C. and the flow rate was 0.6 mL/min. All LC-MS/MS analysis parameters are captured electronically in the raw data files. Rat IV, Dog IV, Monkey IV, and Monkey PO PK samples were analyzed by General Analysis Method A. Mouse IV, Mouse PO, and Dog PO PK samples were analyzed by General Analysis Method B. Rat PO samples were analyzed by General Analysis Method C.
The PK parameters were obtained by non-compartmental analysis of plasma concentration vs time data (Phoenix WinNonlin v8.1). The peak concentration (Cmax) and time for Cmax (Tmax) were recorded directly from experimental observations. The area under the curve from time zero to the last sampling time [AUC0-T] and the area under the curve from time zero to infinity [AUCINF] were calculated using the linear-log trapezoidal rule. The total plasma clearance (CLTp), steady-state volume of distribution (VSS), apparent elimination half-life (T-HALF), and mean residence time (MRT) were estimated after IV administration. Estimations of AUC and T-HALF were made using a minimum of three timepoints with quantifiable concentrations. The absolute oral bioavailability (F) was estimated as the ratio of dose-normalized AUC values following oral and IV doses.

The nature of data set [5]: Metabolism in liver microsomes (dog). Format: in vitro ADME. As for the experimental part: as §1
Background: Liver microsomes are vesicles of endoplasmic reticulum, rich in cytochrome P450 enzymes.

With `Cn1nc(NS(C)(=O)=O)c2c(Cl)ccc(-n3c([C@H](Cc4cc(F)cc(F)c4)NC(=O)Cn4nc(C(F)F)c5c4C(F)(F)[C@@H]4C[C@H]54)nc4nc(OCCC(F)(F)F)ccc4c3=O)c21` (atropisomer, axis not shown; (P)) [Example 1, N—((S)-1-((3P)-3-(4-chloro-1-methyl-3-(methylsulfonamido)-1H-indazol-7-yl)-4-oxo-7-(3,3,3-trifluoropropoxy)-3,4-dihydropyrido[2,3-d]pyrimidin-2-yl)-2-(3,5-difluorophenyl)ethyl)-2-((3bS,4aR)-3-(difluoromethyl)-5,5-difluoro-3b,4,4a,5-tetrahydro-1H-cyclopropa[3,4]cyclopenta[1,2-c]pyrazol-1-yl)acetamide], the CC50 (usually the concentration that lowers cell viability or growth by half) at 4 days in data set [1] was above 500 nM. Also, the “intrinsic clearance in human hepatocytes” value in data set [2] (0.5 μM, 0.5×10^6 cells per milliliter) came out at 0.312 mL/min/g liver. Also, in data set [2] (human, cryopreserved hepatocytes in suspension, pH 7.4, 0.5×10^6 cells per milliliter), the half-life at 0.5 μM was above 8 h. Moreover, the half-life at 1 μM in data set [3] was above 2 h; in data set [5] (dog, liver microsomes, pH 7.4, 1 μM compound, 1 mg/mL microsomes, NADPH, read-out: Dog liver microsome T1/2), 1.75 h. The clearance (commonly a measure of how efficiently the substance is removed, as volume per time) in data set [4] stood at 0.5 mL/min/kg. Further, in data set [4], the half-life is 7.6 h. Also, the Vd in data set [4] (read-out: Vss) was 0.24 L/kg. Also, the “stability in dog liver microsomes relative to Example 60.2” value in data set [5] (Example 1 versus Example 60.2) is on record as “six times more stable”.
